Assay results as given in patent US12595232B2, “DRG-MDM2-1 for use as a novel Mouse Double Minute 2 (MDM2) inhibitor” (BAHCESEHIR UNIVERSITESI, priority 2020, dated 2026).
Where two headings read alike, the source gives them in different places.

Experiments:
MDA-MB231 cell lines = experiment: MTT cell viability assay (IC50); type: cell-based; settings: Homo sapiens, MDA-MB-231, single dose of treatment, 10^−9 to 10^−4 M, 570 nm absorbance, FIG. 1, read-out: IC50 (half-maximal inhibitory concentration), MTT cell viability
Protocol: (§1) HCT 116 colon cancer and MDA-MB231 breast cancer cell lines are used in cell culture experiments.
(§2) Cells were treated with high-glucose DMEM medium (Biosera) supplemented with 10% FBS (Gibco) and 1× penicillin/streptomycin (Multicell). The assay was designed to contain 10,000 cells for each well of 24-well cell culture plates before being treated with inhibitors.
(§3) Compound of formula I was dissolved with DMSO as 20 mM stock. 24 hours later, the solution was diluted in DMEM with 10% FBS and final concentration of vehicle DMSO was 0.5% at maximum. Therefore, the vehicle group included 0.5% DMSO concentration in experiments. Intensive cultivation of cells causes a decrease in proliferation capacity.
The MTT cell viability assay was used to detect values of half-maximal inhibitory concentration (IC50). Different concentrations of compound of formula I ranging between 10^−9 to 10^−4 M were tested on MDA-MB231 cell lines with single dose of treatment. 570 nm absorbance values were recorded and IC50 values were calculated by dose response—inhibition curves and nonlinear regression analysis on Graphpad Prism 8 software.

[1] = system: HCT 116 colon cancer and MDA-MB231 breast cancer cell lines; experiment: MTT cell proliferation assay (time course); type: cell-based; settings: for cytotoxicity at 100 µM: read-out: cell viability decrease
Protocol: as §1, §2, §3
For proliferation inhibition analysis, cells were seeded in 24 well plates at 1×10^4 cells/well cells overnight without drug treatment. During the cell proliferation experiments, we performed five days of treatment in each cell line and repeated the experiments three times to check each experiment. No significant difference in cell viability was observed after the third day. Therefore, cells with different drug concentrations were treated for two days. After 48 hours, MTT was applied to the cells and incubated at 37° C. for 4 hours, formazan was solubilized with DMSO (Sigma-Aldrich, St. Louis, USA) and absorbance was measured at 570 nm.
Molecule concentration was 100 μM, the lower concentrations were not shown. Vehicle represents the groups treated with only %0.5 DMSO and Untreated represents no molecule treated group. Molecule responses were evaluated by cell viability which is obtained by spectrophotometric analysis of cells upon MTT treatment at 12 h, 24 h, 48 h and 72 h. […] Statistical significance in graphs was determined by comparing each treatment group with DMSO control using ANOVA testing and significance is considered as p<0.001 (FIG. 2).

HCT-116 cells = experiment: Microscopic evaluation of cells (proliferation, apoptotic morphology); type: cell-based; settings: FIG. 3
Protocol: Cells were photographed and observed under microscope for three days.
As a result, cell viability decreased by 40% at the end of the first day and reached 60% at the end of the third day. Any cell proliferation change and apoptotic cell morphology were not observed in the untreated and vehicle groups. Moreover, differences in cell morphology were also observed. […] Upon treatment with the compound of formula I according to present invention with 100 μM concentration, cells having the morphology of apoptotic cells were observed starting from the 3rd hour.

MDM2 protein = MDM2 protein (Homo sapiens, UniProt Q00987); settings: versus a natural p53 peptide; cited from earlier work
MDM2 protein, sequence (Q00987 whole entry, species assumed): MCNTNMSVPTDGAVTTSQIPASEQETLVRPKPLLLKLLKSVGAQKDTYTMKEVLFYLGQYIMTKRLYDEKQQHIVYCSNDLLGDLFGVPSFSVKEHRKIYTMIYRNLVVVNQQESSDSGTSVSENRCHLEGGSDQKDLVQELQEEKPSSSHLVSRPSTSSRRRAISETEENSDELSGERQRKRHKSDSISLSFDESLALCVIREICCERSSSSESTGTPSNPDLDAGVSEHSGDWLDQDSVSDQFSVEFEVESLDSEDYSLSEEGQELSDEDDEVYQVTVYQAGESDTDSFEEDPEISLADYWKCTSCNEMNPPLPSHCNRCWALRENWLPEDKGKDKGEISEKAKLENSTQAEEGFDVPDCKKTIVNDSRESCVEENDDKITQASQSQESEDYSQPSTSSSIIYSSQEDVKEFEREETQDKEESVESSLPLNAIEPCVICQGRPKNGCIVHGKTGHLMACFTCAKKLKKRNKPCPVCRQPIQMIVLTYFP

**Q.** Which IC50 (MDA-MB231 cell lines) does the source give for `O=C(O)CC(NC(=O)Cc1c[nH]c2ccccc12)c1ccc(F)cc1` (centres unmarked) [compound of formula I] here?
**A.** 77 µM

**Q.** And the “cell viability compared to vehicle and untreated groups” value ([1]; 100 μM, MTT at 12 h, 24 h, 48 h and 72 h, ANOVA, p<0.001, FIG. 2)?
**A.** statistically significant difference

**Q.** What about the cytotoxicity at 100 µM ([1]; end of the first day) of the same compound?
**A.** 40%

**Q.** And the cytotoxicity at 100 µM ([1]; end of the third day)?
**A.** 60%

**Q.** And the “time from which cells having the morphology of apoptotic cells were observed” value (HCT-116 cells; 100 μM concentration)?
**A.** 3 hour

**Q.** And the “apoptotic activity under microscope” value (HCT-116 cells; HCT-116)?
**A.** clear apoptotic activity from the twelfth hour

**Q.** And the proliferation under microscope (HCT-116 cells; HCT-116, observed for three days, versus vehicle and untreated)?
**A.** reduced proliferation

**Q.** Which “binding affinity to MDM2 relative to natural p53 peptide” value (MDM2 protein) does the source give for MI-319 here?
**A.** 500 fold
